Measured values as given in the supplement of paper PMC10307832.

Experiments:
Test in all cases: relative viability (nuclei count vs DMSO), 5 days (fraction); higher = more cells survive
ABC-1 = test system: ABC-1
In short: (§1)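 Relative viability is defined as nuclei in treated wells over nuclei in vehicle wells. Duplicate plates were run and medians reported. Lung cancer cell lines in 1536-well plates were dosed by pin tool one day after seeding, with one drug or with a fixed anchor-drug dose plus five library-drug doses (not always all listed) in √10 steps, and nuclei were counted after 5 days.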

CAL-12T = test system: CAL-12T
In short: as §1

ChaGo-K-1 = test system: ChaGo-K-1
In short: as §1

HCC-366 = test system: HCC-366
In short: as §1

HCC-78 = test system: HCC-78
In short: as §1

LC-2-ad = test system: LC-2-ad
In short: as §1

LOU-NH91 = test system: LOU-NH91
In short: as §1

LU99A = test system: LU99A
In short: as §1

NCI-H1395 = test system: NCI-H1395
In short: as §1

NCI-H1651 = test system: NCI-H1651
In short: as §1

NCI-H1755 = test system: NCI-H1755
In short: as §1

NCI-H1793 = test system: NCI-H1793
In short: as §1

NCI-H1944 = test system: NCI-H1944
In short: as §1

NCI-H2087 = test system: NCI-H2087
In short: as §1

NCI-H2170 = test system: NCI-H2170
In short: as §1

NCI-H2228 = test system: NCI-H2228
In short: as §1

NCI-H2405 = test system: NCI-H2405
In short: as §1

NCI-H3122 = test system: NCI-H3122
In short: as §1

NCI-H460 = test system: NCI-H460
In short: as §1

PC-3 [JPC-3] = test system: PC-3 [JPC-3]
In short: as §1

RERF-LC-KJ = test system: RERF-LC-KJ
In short: as §1

UMC-11 = test system: UMC-11
In short: as §1

For COc1cc2nccc(Oc3ccc(NC(=O)Nc4cc(C)on4)c(Cl)c3)c2cc1OC [Tivozanib] + CS(=O)(=O)N1CCN(Cc2cc3nc(-c4cccc5[nH]ncc45)nc(N4CCOCC4)c3s2)CC1 [Pictilisib] (partner 1 µM), the relative viability (ABC-1; first compound 0.005 µM) was 0.775, the relative viability (ABC-1; first compound 0.01581 µM) was 0.673 and the relative viability (ABC-1; first compound 0.05 µM) was 0.794. The relative viability (ABC-1; first compound 0.1581 µM) was 0.646, the relative viability (ABC-1; first compound 0.5 µM) was 0.326 and the relative viability (CAL-12T; first compound 0.005 µM) was 0.212. The relative viability (CAL-12T; first compound 0.01581 µM) was 0.445, the relative viability (CAL-12T; first compound 0.05 µM) was 0.608 and the relative viability (CAL-12T; first compound 0.5 µM) was 0.404. The relative viability (ChaGo-K-1; first compound 0.005 µM) was 0.591, the relative viability (ChaGo-K-1; first compound 0.01581 µM) was 0.779 and the relative viability (ChaGo-K-1; first compound 0.05 µM) was 0.559. The relative viability (ChaGo-K-1; first compound 0.1581 µM) was 0.388, the relative viability (ChaGo-K-1; first compound 0.5 µM) was 0.504 and the relative viability (HCC-366; first compound 0.005 µM) was 0.126. The relative viability (HCC-366; first compound 0.01581 µM) was 0.179, the relative viability (HCC-366; first compound 0.05 µM) was 0.103 and the relative viability (HCC-366; first compound 0.1581 µM) was 0.189. It also gave a relative viability (HCC-366; first compound 0.5 µM) of 0.175, a relative viability (HCC-78; first compound 0.005 µM) of 0.188 and a relative viability (HCC-78; first compound 0.01581 µM) of 0.235. The relative viability (HCC-78; first compound 0.05 µM) was 0.207, the relative viability (HCC-78; first compound 0.1581 µM) was 0.14 and the relative viability (HCC-78; first compound 0.5 µM) was 0.206. It also gave a relative viability (LC-2-ad; first compound 0.005 µM) of 0.417, a relative viability (LC-2-ad; first compound 0.01581 µM) of 0.353 and a relative viability (LC-2-ad; first compound 0.05 µM) of 0.263. It also gave a relative viability (LC-2-ad; first compound 0.1581 µM) of 0.204, a relative viability (LC-2-ad; first compound 0.5 µM) of 0.159 and a relative viability (LOU-NH91; first compound 0.005 µM) of 0.467. It also gave a relative viability (LOU-NH91; first compound 0.01581 µM) of 0.519, a relative viability (LOU-NH91; first compound 0.05 µM) of 0.559 and a relative viability (LOU-NH91; first compound 0.1581 µM) of 0.485. The relative viability (LOU-NH91; first compound 0.5 µM) was 0.526, the relative viability (LU99A; first compound 0.005 µM) was 0.315 and the relative viability (LU99A; first compound 0.01581 µM) was 0.339. For the same compound, the relative viability (LU99A; first compound 0.05 µM) was 0.348, the relative viability (LU99A; first compound 0.5 µM) was 0.317 and the relative viability (NCI-H1395; first compound 0.005 µM) was 0.671. The relative viability (NCI-H1395; first compound 0.01581 µM) was 0.746, the relative viability (NCI-H1395; first compound 0.05 µM) was 0.769 and the relative viability (NCI-H1395; first compound 0.1581 µM) was 0.627. For the same compound, the relative viability (NCI-H1395; first compound 0.5 µM) was 0.678, the relative viability (NCI-H1651; first compound 0.005 µM) was 0.464 and the relative viability (NCI-H1651; first compound 0.01581 µM) was 0.581. For the same compound, the relative viability (NCI-H1651; first compound 0.05 µM) was 0.613, the relative viability (NCI-H1651; first compound 0.1581 µM) was 0.484 and the relative viability (NCI-H1651; first compound 0.5 µM) was 0.783. The relative viability (NCI-H1755; first compound 0.005 µM) was 0.365, the relative viability (NCI-H1755; first compound 0.01581 µM) was 0.402 and the relative viability (NCI-H1755; first compound 0.05 µM) was 0.453. For the same compound, the relative viability (NCI-H1755; first compound 0.1581 µM) was 0.405, the relative viability (NCI-H1755; first compound 0.5 µM) was 0.396 and the relative viability (NCI-H1793; first compound 0.005 µM) was 0.222. It also gave a relative viability (NCI-H1793; first compound 0.01581 µM) of 0.257, a relative viability (NCI-H1793; first compound 0.05 µM) of 0.364 and a relative viability (NCI-H1793; first compound 0.5 µM) of 0.292. It also gave a relative viability (NCI-H1944; first compound 0.005 µM) of 0.327, a relative viability (NCI-H1944; first compound 0.01581 µM) of 0.365 and a relative viability (NCI-H1944; first compound 0.05 µM) of 0.356. The relative viability (NCI-H1944; first compound 0.1581 µM) was 0.289, the relative viability (NCI-H1944; first compound 0.5 µM) was 0.307 and the relative viability (NCI-H2087; first compound 0.005 µM) was 0.765. It also gave a relative viability (NCI-H2087; first compound 0.01581 µM) of 1.08, a relative viability (NCI-H2087; first compound 0.05 µM) of 0.851 and a relative viability (NCI-H2087; first compound 0.1581 µM) of 0.738. For the same compound, the relative viability (NCI-H2087; first compound 0.5 µM) was 1.02, the relative viability (NCI-H2170; first compound 0.005 µM) was 0.312 and the relative viability (NCI-H2170; first compound 0.01581 µM) was 0.344. For the same compound, the relative viability (NCI-H2170; first compound 0.05 µM) was 0.404, the relative viability (NCI-H2170; first compound 0.5 µM) was 0.335 and the relative viability (NCI-H2228; first compound 0.005 µM) was 0.402. The relative viability (NCI-H2228; first compound 0.01581 µM) was 0.421, the relative viability (NCI-H2228; first compound 0.05 µM) was 0.528 and the relative viability (NCI-H2228; first compound 0.1581 µM) was 0.297. The relative viability (NCI-H2228; first compound 0.5 µM) was 0.514, the relative viability (NCI-H2405; first compound 0.005 µM) was 0.34 and the relative viability (NCI-H2405; first compound 0.01581 µM) was 0.398. For the same compound, the relative viability (NCI-H2405; first compound 0.05 µM) was 0.428, the relative viability (NCI-H2405; first compound 0.1581 µM) was 0.312 and the relative viability (NCI-H2405; first compound 0.5 µM) was 0.342. It also gave a relative viability (NCI-H3122; first compound 0.005 µM) of 0.568, a relative viability (NCI-H3122; first compound 0.01581 µM) of 0.547 and a relative viability (NCI-H3122; first compound 0.05 µM) of 0.598. It also gave a relative viability (NCI-H3122; first compound 0.1581 µM) of 0.644, a relative viability (NCI-H3122; first compound 0.5 µM) of 0.789 and a relative viability (NCI-H460; first compound 0.005 µM) of 0.337. It also gave a relative viability (NCI-H460; first compound 0.01581 µM) of 0.296, a relative viability (NCI-H460; first compound 0.05 µM) of 0.449 and a relative viability (NCI-H460; first compound 0.1581 µM) of 0.253. The relative viability (NCI-H460; first compound 0.5 µM) was 0.36, the relative viability (PC-3 [JPC-3]; first compound 0.005 µM) was 0.705 and the relative viability (PC-3 [JPC-3]; first compound 0.01581 µM) was 0.698. It also gave a relative viability (PC-3 [JPC-3]; first compound 0.05 µM) of 0.757, a relative viability (PC-3 [JPC-3]; first compound 0.1581 µM) of 0.604 and a relative viability (PC-3 [JPC-3]; first compound 0.5 µM) of 0.706. The relative viability (RERF-LC-KJ; first compound 0.005 µM) was 0.509, the relative viability (RERF-LC-KJ; first compound 0.01581 µM) was 0.471 and the relative viability (RERF-LC-KJ; first compound 0.05 µM) was 0.533. It also gave a relative viability (RERF-LC-KJ; first compound 0.1581 µM) of 0.356, a relative viability (RERF-LC-KJ; first compound 0.5 µM) of 0.586 and a relative viability (UMC-11; first compound 0.005 µM) of 0.793. For the same compound, the relative viability (UMC-11; first compound 0.01581 µM) was 0.725, the relative viability (UMC-11; first compound 0.05 µM) was 0.712 and the relative viability (UMC-11; first compound 0.5 µM) was 0.653.
